From patent publication US20140221498A1, “AMINO DIOL DERIVATIVES AS SPHINGOSINE 1-PHOSPHATE (S1P) RECEPTOR MODULATORS” (ALLERGAN, INC., priority 2013, published 2014)

Molecular target: T1, human S1P1 receptor (Homo sapiens, UniProt P21453)
T1 construct: expressed in transfected cells; membranes used
Experiment: GTP γ35S binding assay for S1P1 activity
Type: biochemical
Settings: membranes of cells stably expressing the S1P1 receptor, test compounds 0.08 to 5,000 nM, 30 min at 25° C.
Procedure: Compounds were synthesized and tested for S1P1 activity using the GTP γ^35S binding assay. These compounds may be assessed for their ability to activate or block activation of the human S1P1 receptor in cells stably expressing the S1P1 receptor.
GTP γ^35S binding was measured in the medium containing (mM) HEPES 25, pH 7.4, MgCl2 10, NaCl 100, dithitothreitol 0.5, digitonin 0.003%, 0.2 nM GTP γ^35S, and 5 μg membrane protein in a volume of 150 μl. Test compounds were included in the concentration range from 0.08 to 5,000 nM unless indicated otherwise. Membranes were incubated with 100 μM 5′-adenylylimmidodiphosphate for 30 min, and subsequently with 10 μM GDP for 10 min on ice. Drug solutions and membrane were mixed, and then reactions were initiated by adding GTP γ^35S and continued for 30 min at 25° C. Reaction mixtures were filtered over Whatman GF/B filters under vacuum, and washed three times with 3 mL of ice-cold buffer (HEPES 25, pH7.4, MgCl2 10 and NaCl 100). Filters were dried and mixed with scintillant, and counted for ^35S activity using a β-counter. Agonist-induced GTP γ^35S binding was obtained by subtracting that in the absence of agonist. Binding data were analyzed using a non-linear regression method. In case of antagonist assay, the reaction mixture contained 10 nM S1P in the presence of test antagonist at concentrations ranging from 0.08 to 5000 nM.

T1 sequence (P21453 whole entry): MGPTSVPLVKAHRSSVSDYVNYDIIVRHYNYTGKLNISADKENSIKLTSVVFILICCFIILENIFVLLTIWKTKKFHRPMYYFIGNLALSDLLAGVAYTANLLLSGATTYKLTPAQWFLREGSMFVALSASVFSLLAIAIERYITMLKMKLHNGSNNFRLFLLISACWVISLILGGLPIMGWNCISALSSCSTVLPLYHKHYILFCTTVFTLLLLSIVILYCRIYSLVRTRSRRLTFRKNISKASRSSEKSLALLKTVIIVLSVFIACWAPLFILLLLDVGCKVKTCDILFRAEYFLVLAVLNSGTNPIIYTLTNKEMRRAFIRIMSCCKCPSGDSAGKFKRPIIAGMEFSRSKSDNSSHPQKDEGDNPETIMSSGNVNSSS

EC50 | Compound
15.1 nM | Cc1ccc(CC(CCCOc2ccc(CCC(N)(CO)CO)cc2)c2cc(F)cc(F)c2)cc1C (stereo not drawn) [Compound 1, 2-amino-2-[2-(4-{[4-(3,5-difluorophenyl)-5-(3,4-dimethylphenyl)pentyl]oxy}phenyl)ethyl]propane-1,3-diol]
42 nM | Cc1ccc(CC(CCCOc2ccc(CCC(N)(CO)CO)cc2)c2cccc(F)c2)cc1C (stereo not drawn) [Compound 2, 2-amino-2-[2-(4-{[5-(3,4-dimethylphenyl)-4-(3-fluorophenyl)pentyl]oxy}phenyl)ethyl]propane-1,3-diol]
92.4 nM | Cc1ccc(CC(CCCOc2ccc(CCC(N)(CO)CO)cc2)c2cccc(Cl)c2)cc1C (stereo not drawn) [Compound 3, 2-amino-2-[2-(4-{[4-(3-chlorophenyl)-5-(3,4-dimethylphenyl)pentyl]oxy}phenyl)ethyl]propane-1,3-diol]
